Consider 18 compounds from PubChem BioAssay AID624129 (Sanford-Burnham Center for Chemical Genomics, 2012).

Each structure is given as a SMILES string. Calls of active or inactive are those of the source. The rule behind the calls is not given here.

The test deals with C-X-C chemokine receptor type 6 (Homo sapiens) (UniProt O00574). The experiment in a line: CXCR6 receptor antagonists, dose response, cell-based, beta-arrestin, DiscoveRx, APJ panel, uHTS hits (AID 624129). The note with it: CXCR6 beta-arrestin (DiscoveRx) antagonist cell assay; for outcome: CXCR6, dose range 1; for inhibition: CXCR6, run 2, dose range 1, at 79 µM (top of the series).

Setting [1] is: CXCR6, dose range 1, mean IC50 across replicates.

Chain of C-X-C chemokine receptor type 6 (Homo sapiens) (O00574 whole entry, looked up): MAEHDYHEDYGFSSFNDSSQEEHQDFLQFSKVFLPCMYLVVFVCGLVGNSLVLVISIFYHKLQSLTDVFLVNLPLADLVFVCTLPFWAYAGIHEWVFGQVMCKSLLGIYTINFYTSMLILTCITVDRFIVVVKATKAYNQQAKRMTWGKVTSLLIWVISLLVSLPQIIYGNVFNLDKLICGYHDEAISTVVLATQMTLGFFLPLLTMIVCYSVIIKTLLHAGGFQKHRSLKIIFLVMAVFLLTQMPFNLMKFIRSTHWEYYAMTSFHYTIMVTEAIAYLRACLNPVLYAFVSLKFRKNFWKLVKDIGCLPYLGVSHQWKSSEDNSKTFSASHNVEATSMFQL

Regarding `CCOC(=O)c1cc([N+](=O)[O-])c([N+](=O)[O-])cc1NC(C)=O`, the result was inactive and the inhibition was 110%. For the same compound, under setting [1], the concentration for half-maximal inhibition (IC50) stood at 15.1 µM. Under “CXCR6, run 1, dose range 2”, the IC50 was 14.8 µM. The compound further came in with an IC50 (CXCR6, run 2, dose range 2) of 15.5 µM.

`N#CC(C#N)=C1C=CC=CN1/C(=C\c1ccco1)C(=O)c1ccc(-c2ccccc2)cc1`: the outcome was inactive and the inhibition is 103%. The compound further showed an IC50 under setting [1] of 14.1 µM. This compound also came in with a half-maximal inhibitory concentration (IC50) (CXCR6, run 1, dose range 2) of 12.2 µM. Moreover, the IC50 (CXCR6, run 2, dose range 2) amounted to 16 µM.

As for `C[n+]1ccc(/C=N/Nc2nc(Cl)c(C#N)c(Cl)c2Cl)cc1`, the result was inactive and the inhibition was 90.5%. In addition, under setting [1], the concentration for half-maximal inhibition (IC50) came out at 44.8 µM. The same compound had an IC50 (CXCR6, run 1, dose range 2) of 23.6 µM. Also, the IC50 (CXCR6, run 2, dose range 2) amounted to 66 µM.

In the case of `CCOC(=O)c1c(-c2ccc(C)o2)csc1NC(=S)NC(=O)N(C)C`, the result was inactive and the inhibition came to 99.3%. Moreover, the IC50 under setting [1] was found to be 13.6 µM. The same compound registered a half-inhibitory concentration (IC50) (CXCR6, run 1, dose range 2) of 9.19 µM. Also, the IC50 (CXCR6, run 2, dose range 2) stood at 18 µM.

In the case of `COc1ccc(-c2c(C(=O)c3ccccc3)[nH]c(N)c2C(=O)c2ccc(Br)cc2)cc1OC`, the outcome was inactive and the inhibition is 86.6%. Besides, the 50% inhibitory concentration (IC50) under setting [1] worked out at 17.4 µM. The same compound showed a 50% inhibitory concentration (IC50) (CXCR6, run 1, dose range 2) of 16.4 µM. Under “CXCR6, run 2, dose range 2”, this compound displayed a half-inhibitory concentration (IC50) of 18.4 µM.

`CCCC(=O)OCCNc1cc(SCc2ccco2)c2nonc2c1[N+](=O)[O-]`: the result was inactive and the inhibition was determined as 103%. In addition, the half-maximal inhibitory concentration (IC50) under setting [1] was found to be 12.2 µM. In addition, the 50% inhibitory concentration (IC50) (CXCR6, run 1, dose range 2) came out at 11.3 µM. The compound further gave an IC50 (CXCR6, run 2, dose range 2) of 13.1 µM.

For `Cc1cc2nc(N3C(=O)CNC3=S)sc2cc1C`, the outcome was inactive and the inhibition amounted to 89.4%. This compound registered a 50% inhibitory concentration (IC50) under setting [1] of 11.6 µM. The IC50 (CXCR6, run 1, dose range 2) turned out to be 8.25 µM. Further, the 50% inhibitory concentration (IC50) (CXCR6, run 2, dose range 2) amounted to 14.9 µM.

`CS(=O)(=O)c1ccc(C(=O)OCC(=O)N2CCN(CCC3CCCCC3)CC2)cc1[N+](=O)[O-]`: the outcome was inactive and the inhibition amounted to 111%. The same compound gave a half-maximal inhibitory concentration (IC50) under setting [1] of 11.2 µM. Besides, the IC50 (CXCR6, run 1, dose range 2) is 10.6 µM. This compound also came in with a 50% inhibitory concentration (IC50) (CXCR6, run 2, dose range 2) of 11.8 µM.

On to `Cc1ccc(OCC(=O)NNC(=S)NC(=O)C2CC2)c(C)c1`, for which the result was inactive and the inhibition stood at 72.3%. The compound further had an IC50 under setting [1] of 14.2 µM. For the setting “CXCR6, run 1, dose range 2”, this compound had a concentration for half-maximal inhibition (IC50) of 10.3 µM. For the same compound, the IC50 (CXCR6, run 2, dose range 2) amounted to 18.1 µM.

Consider `N=C1SCC(=O)N1c1ncc(Cc2ccccc2Cl)s1`, for which the result was inactive and the inhibition turned out to be 78.1%. Also, the half-maximal inhibitory concentration (IC50) under setting [1] was determined as 12 µM. This compound also gave an IC50 (CXCR6, run 1, dose range 2) of 10.5 µM. For the same compound, for the setting “CXCR6, run 2, dose range 2”, the 50% inhibitory concentration (IC50) is 13.5 µM.

Turning to `O=C1c2cccc3c([N+](=O)[O-])ccc(c23)C(=O)N1c1ccc(Cl)cn1`, the result was inactive and the inhibition was found to be 92.1%. Under setting [1], this compound returned an IC50 of 19.6 µM. This compound also gave a half-maximal inhibitory concentration (IC50) (CXCR6, run 1, dose range 2) of 17.7 µM. Moreover, for the setting “CXCR6, run 2, dose range 2”, the IC50 is 21.6 µM.

With `CCn1c(=O)cc(NC2=NCC(C)CN2c2cccc(Cl)c2)n(C)c1=O` (stereo not given), the result was inactive and the inhibition came to 79%. In addition, under setting [1], the 50% inhibitory concentration (IC50) amounted to 19.1 µM. Further, where the note is “CXCR6, run 1, dose range 2”, the IC50 worked out at 19.3 µM. The compound further gave an IC50 (CXCR6, run 2, dose range 2) of 19 µM.

Consider `Cn1c(=O)n(C)c2cc([N+](=O)[O-])c(N3CCN(C(=O)c4cccc(Cl)c4)CC3)cc21`, for which the result was inactive and the inhibition was found to be 60.7%. Under setting [1], this compound yielded an IC50 of 11.2 µM. This compound also yielded a concentration for half-maximal inhibition (IC50) (CXCR6, run 1, dose range 2) of 11.3 µM. The IC50 (CXCR6, run 2, dose range 2) worked out at 11 µM.

As to `O=C(NC(=S)Nc1ccccc1O)c1cccnc1`, the outcome was inactive and the inhibition stood at 58.4%. Under setting [1], this compound displayed an IC50 of 30.3 µM. Under “CXCR6, run 1, dose range 2”, this compound registered a half-inhibitory concentration (IC50) of 30.3 µM. For the same compound, the IC50 (CXCR6, run 2, dose range 2) was above 79 µM.

`O=[N+]([O-])c1cc(-c2ncccn2)c([N+](=O)[O-])s1`: the result was inactive and the inhibition is 111%. The half-maximal inhibitory concentration (IC50) under setting [1] is 24 µM. Also, the IC50 (CXCR6, run 1, dose range 2) is 23.8 µM. For the same compound, the IC50 (CXCR6, run 2, dose range 2) was found to be 24.3 µM.

As for `O=[N+]([O-])c1cc2no[n+]([O-])c2cc1N1CCCCC1`, the result was inactive and the inhibition came to 112%. Further, under setting [1], the IC50 came to 12 µM. The compound further displayed an IC50 (CXCR6, run 1, dose range 2) of 12.2 µM. Besides, the IC50 (CXCR6, run 2, dose range 2) came out at 11.9 µM.

Consider `COC(=O)c1cc([N+](=O)[O-])c(-n2cncn2)c([N+](=O)[O-])c1`, for which the result was inactive and the inhibition was found to be 113%. Under setting [1], this compound came in with an IC50 of 16.2 µM. For the setting “CXCR6, run 1, dose range 2”, this compound had an IC50 of 13.9 µM. This compound also displayed a 50% inhibitory concentration (IC50) (CXCR6, run 2, dose range 2) of 18.4 µM.

With `COc1cc(C2C(C#N)=C(N)Oc3n[nH]c(-c4cccs4)c32)cc(OC)c1O` (stereo not given), the result was inactive and the inhibition came to 70.9%. Besides, the IC50 under setting [1] amounted to 47.3 µM. The compound also yielded an IC50 (CXCR6, run 1, dose range 2) of 36.1 µM. Under “CXCR6, run 2, dose range 2”, this compound showed a 50% inhibitory concentration (IC50) of 58.4 µM.
